Data taken from patent US20230011131A1, “NOVEL COMPOUND FOR INHIBITING HISTONE ACETYLTRANSFERASE P300 AND ANTI-FIBROSIS COMPOSITION COMPRISING SAME” (REFURE LIFE SCIENCE INC., priority 2019, published 2023).

Molecular target: HAT p300 (histone acetyltransferase p300) (Homo sapiens, UniProt Q09472)
Assay: HAT activity kit (Biovision K332): inhibition of HAT activity of p300
Type: biochemical
Details: for IC50: 0.5, 1, 10 or 100 μM; for HAT activity inhibitory effect (HAT p300 activity inhibited): Synthesis Examples diluted to 100 μM
Experimental: Candidates 1 to 67, which are HAT inhibitors manufactured based on the PCAF structure, and HAT-24, HAT-26, and HAT-28 were diluted to 100 μM, and the degree of inhibition of HAT activity of p300 (inhibitory activity) was then determined using a kit for measuring HAT activity (Biovision, Cat No. K332, U.S.A) according to the method provided by the manufacturer. Here, the tissue was treated with C646 (HAT inhibitor) as a positive control.
Candidates 1 to 14 having a good HAT activity inhibitory effect in Section were diluted to concentrations of 0.5 μM, 1 μM, 10 μM, and 100 μM. Thereafter, the degree of inhibition of HAT activity was determined in the same manner as in Section.
Each of Synthesis Examples 1 to 24 was diluted to 100 μM, and the degree of inhibition of HAT p300 activity was determined in the same manner as in Section. Here, the tissues were treated with C646 and Candidate 12 (HAT-12) as the control instead of Synthesis Examples 1 to 24.

HAT p300 (histone acetyltransferase p300), sequence (Q09472 whole entry): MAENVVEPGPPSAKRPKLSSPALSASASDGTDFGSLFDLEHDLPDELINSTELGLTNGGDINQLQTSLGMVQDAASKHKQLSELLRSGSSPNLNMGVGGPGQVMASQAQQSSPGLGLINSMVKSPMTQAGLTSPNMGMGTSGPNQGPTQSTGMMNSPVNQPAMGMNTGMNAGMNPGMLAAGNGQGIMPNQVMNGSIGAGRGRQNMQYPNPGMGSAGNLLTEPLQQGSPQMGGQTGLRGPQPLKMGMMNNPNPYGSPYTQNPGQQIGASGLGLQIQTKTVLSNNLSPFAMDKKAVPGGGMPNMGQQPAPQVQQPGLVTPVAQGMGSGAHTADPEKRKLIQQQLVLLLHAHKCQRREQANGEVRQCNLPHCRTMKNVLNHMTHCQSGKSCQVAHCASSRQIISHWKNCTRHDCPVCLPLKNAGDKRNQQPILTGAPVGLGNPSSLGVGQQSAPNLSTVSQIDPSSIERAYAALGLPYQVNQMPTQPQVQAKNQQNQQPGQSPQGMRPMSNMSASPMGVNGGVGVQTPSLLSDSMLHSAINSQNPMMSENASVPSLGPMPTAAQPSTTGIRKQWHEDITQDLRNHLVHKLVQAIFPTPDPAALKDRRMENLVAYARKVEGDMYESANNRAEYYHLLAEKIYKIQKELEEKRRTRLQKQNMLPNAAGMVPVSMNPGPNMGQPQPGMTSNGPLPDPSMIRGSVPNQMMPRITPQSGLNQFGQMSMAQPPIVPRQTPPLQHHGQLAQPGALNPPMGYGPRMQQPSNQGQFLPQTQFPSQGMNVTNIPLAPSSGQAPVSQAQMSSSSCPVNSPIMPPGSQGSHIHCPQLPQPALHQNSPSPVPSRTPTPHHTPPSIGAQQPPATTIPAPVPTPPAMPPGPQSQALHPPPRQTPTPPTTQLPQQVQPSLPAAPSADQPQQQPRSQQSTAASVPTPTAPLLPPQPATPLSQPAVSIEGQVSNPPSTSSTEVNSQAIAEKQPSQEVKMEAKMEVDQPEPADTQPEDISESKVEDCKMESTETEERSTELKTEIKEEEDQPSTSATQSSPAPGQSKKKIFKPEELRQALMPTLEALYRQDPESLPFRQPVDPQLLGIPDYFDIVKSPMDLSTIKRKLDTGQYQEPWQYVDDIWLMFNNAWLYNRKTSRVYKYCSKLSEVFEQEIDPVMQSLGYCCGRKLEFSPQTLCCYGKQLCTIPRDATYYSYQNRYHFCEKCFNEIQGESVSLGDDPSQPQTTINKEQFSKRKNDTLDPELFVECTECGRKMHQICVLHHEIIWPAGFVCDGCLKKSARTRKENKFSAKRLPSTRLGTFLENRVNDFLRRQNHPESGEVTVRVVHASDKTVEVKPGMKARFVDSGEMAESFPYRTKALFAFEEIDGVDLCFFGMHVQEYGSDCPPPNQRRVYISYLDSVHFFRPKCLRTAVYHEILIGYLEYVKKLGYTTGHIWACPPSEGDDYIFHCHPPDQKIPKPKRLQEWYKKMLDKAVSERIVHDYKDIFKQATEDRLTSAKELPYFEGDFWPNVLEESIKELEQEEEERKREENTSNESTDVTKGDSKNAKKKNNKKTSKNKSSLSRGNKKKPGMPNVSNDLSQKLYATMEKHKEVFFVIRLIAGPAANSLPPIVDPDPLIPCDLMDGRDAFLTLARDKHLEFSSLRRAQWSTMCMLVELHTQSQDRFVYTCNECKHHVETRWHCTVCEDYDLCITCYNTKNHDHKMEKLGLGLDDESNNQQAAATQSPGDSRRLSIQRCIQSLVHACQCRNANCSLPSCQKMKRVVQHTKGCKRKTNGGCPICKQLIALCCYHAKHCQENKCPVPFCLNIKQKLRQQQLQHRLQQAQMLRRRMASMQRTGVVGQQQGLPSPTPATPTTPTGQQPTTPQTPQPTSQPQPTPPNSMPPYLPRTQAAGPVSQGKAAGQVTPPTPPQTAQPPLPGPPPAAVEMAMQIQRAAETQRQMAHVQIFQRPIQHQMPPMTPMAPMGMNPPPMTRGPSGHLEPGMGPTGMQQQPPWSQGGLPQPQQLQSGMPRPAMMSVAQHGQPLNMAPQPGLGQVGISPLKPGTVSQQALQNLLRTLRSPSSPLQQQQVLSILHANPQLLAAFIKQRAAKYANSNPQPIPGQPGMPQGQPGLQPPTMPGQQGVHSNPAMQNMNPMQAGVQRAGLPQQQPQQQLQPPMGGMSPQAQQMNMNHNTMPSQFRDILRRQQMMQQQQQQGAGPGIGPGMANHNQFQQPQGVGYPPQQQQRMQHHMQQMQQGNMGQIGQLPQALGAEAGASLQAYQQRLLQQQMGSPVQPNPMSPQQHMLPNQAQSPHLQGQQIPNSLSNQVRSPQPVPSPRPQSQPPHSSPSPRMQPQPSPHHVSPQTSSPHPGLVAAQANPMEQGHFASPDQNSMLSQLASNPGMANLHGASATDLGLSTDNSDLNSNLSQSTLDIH

Row | Compound | IC50 [µM] | HAT activity inhibitory effect (HAT p300 activity inhibited) [%]
1 | COc1cc(/C=C/C(=O)c2cccc(C(N)=O)c2)cc(I)c1OCc1cccc(C(N)=O)c1 [Synthesis Example 6, (E)-3-(3-(4-((3-carbamoylbenzyl)oxy)-3-iodo-5-methoxyphenyl)acryloyl) benzamide] | 0.87 | ~100
2 | COc1cc(/C=C/C(=O)c2cccc(O)c2)cc(Br)c1OCc1cccc(C(N)=O)c1 [Synthesis Example 8] | 1.06 | ~100
